# According to article PMC10669340, “Bioactive Compounds from an Endophytic Pezicula sp. Showing Antagonistic Effects against the Ash Dieback Pathogen” (Biomolecules, 2023):
# Like-named read-outs stand apart in the source and are kept apart here. Marks after values point to notes of the source that are not given here.
# Legend:
# Bacillus subtilis DSM 10 = assay: Antimicrobial serial dilution assay (MIC); assay type: cell-based; settings: Bacillus subtilis DSM 10, n.i.: no inhibition
# Experimental: (§1) The antimicrobial activity (minimum inhibitory concentration, MIC) of the compounds was determined against Acinetobacter baumannii DSM 30008, Bacillus subtilis DSM 10, Chromobacterium violaceum DSM 30191, Escherichia coli DSM 1116, Mycobacterium smegmatis ATCC 700084, Pseudomonas aeruginosa PA14, Staphylococcus aureus DSM 346, Candida albicans DSM1665, Mucor hiemalis DSM 2656, Pichia anomala DSM 6766, Rhodotorula glutinis DSM 10134 and Schizosaccharomyces pombe DSM 70572 in a serial dilution assay as previously described.
# [1] = test system: Chromobacterium violaceum DSM 30191; assay: Antimicrobial serial dilution assay (MIC); assay type: cell-based; settings: for Minimum inhibitory concentration (MIC): n.i.: no inhibition
# Experimental: as §1
# MTT cytotoxicity assay = assay type: cell-based; settings: read-out: Cytotoxic activity (IC50)
# Experimental: The in vitro cytotoxicity assay was performed using the MTT (3-(4,5-dimethylthiayol-2-yl)-2,5-diphenyltetrazolium bromide) test in 96-well microtiter plates as previously described.
# [2] = test system: Staphylococcus aureus DSM 346; assay: Antimicrobial serial dilution assay (MIC); assay type: cell-based; settings: Staphylococcus aureus DSM 346; n.i.: no inhibition
# Experimental: as §1
# [3] = test system: Schizosaccharomyces pombe DSM 70572; assay: Antimicrobial serial dilution assay (MIC); assay type: cell-based; settings: Schizosaccharomyces pombe DSM 70572; n.i.: no inhibition
# Experimental: as §1
# [4] = test system: Mycobacterium smegmatis ATCC 700084; assay: Antimicrobial serial dilution assay (MIC); assay type: cell-based; settings: Mycobacterium smegmatis ATCC 700084; n.i.: no inhibition
# Experimental: as §1
# [5] = test system: Pseudomonas aeruginosa PA14; assay: Antimicrobial serial dilution assay (MIC); assay type: cell-based; settings: n.i.: no inhibition
# Experimental: as §1
# [6] = test system: Acinetobacter baumannii DSM 30008; assay: Antimicrobial serial dilution assay (MIC); assay type: cell-based; settings: for Minimum inhibitory concentration (MIC): n.i.: no inhibition
# Experimental: as §1
# [7] = test system: Rhodotorula glutinis DSM 10134; assay: Antimicrobial serial dilution assay (MIC); assay type: cell-based; settings: Rhodotorula glutinis DSM 10134; n.i.: no inhibition
# Experimental: as §1
# Pichia anomala DSM 6766 = assay: Antimicrobial serial dilution assay (MIC); assay type: cell-based; settings: Pichia anomala DSM 6766; n.i.: no inhibition
# Experimental: as §1
# [8] = test system: Escherichia coli DSM 1116; assay: Antimicrobial serial dilution assay (MIC); assay type: cell-based; settings: n.i.: no inhibition
# Experimental: as §1
# Mucor hiemalis DSM 2656 = assay: Antimicrobial serial dilution assay (MIC); assay type: cell-based; settings: for Minimum inhibitory concentration (MIC): Mucor hiemalis DSM 2656, n.i.: no inhibition
# Experimental: as §1
# Candida albicans DSM1665 = assay: Antimicrobial serial dilution assay (MIC); assay type: cell-based; settings: n.i.: no inhibition
# Experimental: as §1
# [9] = test system: Candida albicans DSM 11225 biofilm; assay: Biofilm assay, inhibition of biofilm formation; assay type: cell-based; design: unit not given here; settings: (/) no activity
# Experimental: The stock of fungal pathogen Candida albicans DSM 11225 from −20 °C was cultured in 25 mL YPD (Yeast extract Peptone Dextrose; dextrose 20 g/L, peptone 20 g/L, yeast extract 10 g/L) medium in a 250 mL flask at 30 °C with shaking 100 rpm for 18 h. Turbidity of the broth was measured and diluted to match the turbidity of a 0.05 McFarland standard in RPMI 1640 medium (Gibco, New York, NY, USA, Thermo Fisher Scientific). Afterwards, 150 μL of the fungal dispersion was added into each well of a 96-well microtiter plate (Falcon no. 351172, Thermo Fisher Scientific) and further incubated for 90 min. The supernatant was removed, and the plate was washed once by using PBS buffer. Compounds were serially diluted in 150 μL in fresh medium to concentrations of 250–2 μg/mL. Staining and analysis were conducted as previously described. Methanol (2.5%) and farnesol (250–2 μg/mL) were used as solvent and positive controls. Error bars indicate SD with duplicates in two biological repeats.
# [10] = test system: H. fraxineus (isolate RH02-T6-B4-2); assay: Agar disc diffusion assay; assay type: cell-based, Hymenoscyphus fraxineus; settings: 6 mm disc, 7 days, 21 °C
# Experimental: The antifungal activity of the isolated compounds against H. fraxineus was assessed by the disc diffusion method using 9 cm diameter petri dishes as previously described […] Three sterile filter paper discs per plate were gently placed on dried potato–dextrose agar. The fungicide nystatin was applied as the positive control (20 and 50 µg/paper disc) and methanol as the negative control (10 µL/paper disc). The test plates were incubated at 21 °C for 7 days, the inhibition diameters were measured, and the activity was evaluated compared to nystatin.
# Figure S44: Agar disc (6 mm diam.) diffusion assay of compound CJ-17,572 (1) against H. fraxineus RH02-T6-B4-2, grown in 9-cm petri dishes on agar-based PD
# medium with H. fraxineus, N - positive control nystatin, M - negative control methanol, CJ – 1.
# Table S1. Antifungal activity of the compounds 1-6. n.i.: no inhibition, n.t.: not tested.
# Compounds Amount ( µg/paper disc)
# Peziculastatin n.t. n.i. 8 mm
# Mycorrhizin A 19 mm 31 mm n.t.
# Cryptosporioptide A n.t. n.i. n.i.
# Cryptosporioptide B n.t. n.i. 8 mm
# Cryptosporioptide C n.t. n.i. n.i.
# Nystatin 21 mm 24 mm n.t.
# [11] = test system: Staphylococcus aureus DSM 1104 preformed biofilm; assay: Biofilm assay, dispersal of preformed biofilm; assay type: cell-based; design: Antibiofilm activity, preformed S. aureus: unit not given here; settings: for Antibiofilm activity, preformed S. aureus: (/) no activity; for efficacy of biofilm eradication, preformed biofilms of S. aureus: concentrations between 15.6 µg/mL–125 µg/mL
# Experimental: Staphylococcus aureus DSM 1104 from −20 °C stock was cultured in 25 mL CASO (Casein–Peptone Soymeal–Peptone; peptone from casein 15 g/L, peptone from soy flour 5 g/L, NaCl 5 g/L, pH 7.3) medium at 37 °C at 100 rpm in 250 mL for 20 h. The precultured suspension of S. aureus was adjusted so that its OD600 matched the turbidity of a 0.001 McFarland standard. S. aureus was incubated in 96-well tissue microtiter plates (TPP tissue culture ref.no 92196, Switzerland) for 24 h at 150 rpm in […] CASO medium with 4% glucose broth. The supernatant was removed from the wells and 150 μL of the respective media (fresh) was added to the wells, together with the serially diluted compounds (250–2 μg/mL). The plates were incubated for a further 24 h at 37 °C. Staining of the biofilms was carried out as described previously. Standard deviation (SD) of two repeats with duplicates each were 10% or less. Methanol (2.5%) and microporenic acid A (250–2 μg/mL) were used as solvent and positive controls. Error bars indicate SD with duplicates in two biological repeats.
# [12] = 50 µg/paper disc, n.i.: no inhibition
# [13] = 100 µg/paper disc, n.i.: no inhibition
compound,measurement,setting,value
"CN(C)[C@@H]1C(O)=C(C(N)=O)C(=O)[C@@]2(O)C(O)=C3C(=O)c4c(O)cccc4[C@@](C)(O)[C@H]3[C@H](O)[C@@H]12 [oxytetracycline, reference compound]",MIC,"Bacillus subtilis DSM 10; DSM10, read-out: Minimum inhibitory concentration (MIC)",16.6 µg/mL
same,MIC,"[1]; DSM30191, n.i.: no inhibition, read-out: Minimum inhibitory concentration (MIC)",0.83 µg/mL
"C/C(=C\c1csc(C)n1)[C@@H]1C[C@@H]2O[C@]2(C)CCC[C@H](C)[C@H](O)[C@@H](C)C(=O)C(C)(C)[C@@H](O)CC(=O)O1 [epothilone B, reference compound]",IC50,"MTT cytotoxicity assay; human, A431",0.065 nM
same,IC50,"MTT cytotoxicity assay; human, A549",0.053 nM
same,IC50,"MTT cytotoxicity assay; human, KB3.1, n.c.: no cytotoxicity",0.045 nM
same,IC50,"MTT cytotoxicity assay; human, MCF-7",0.083 nM
same,IC50,"MTT cytotoxicity assay; human, PC-3",0.28 nM
same,IC50,"MTT cytotoxicity assay; human, SKOV-3",0.18 nM
same,IC50,"MTT cytotoxicity assay; mouse, L929, n.c.: no cytotoxicity",0.43 nM
"CCC(C(=O)O)C(=O)OC1C2(C)Oc3ccc(-c4ccc5c(c4O)C(=O)C4=C(O)C6OC6(C)C(OC(=O)CC(=O)O)C4(C)O5)c(O)c3C(=O)C2=C(O)C2OC21C (stereo not drawn) [Compound 5, Cryptosporioptide B]",Minimum inhibitory concentration (MIC),[2],n.i.
same,Minimum inhibitory concentration (MIC),[3],n.i.
same,Minimum inhibitory concentration (MIC),[4],n.i.
same,Minimum inhibitory concentration (MIC),[5],n.i.
same,Minimum inhibitory concentration (MIC),[6],n.i.
same,Minimum inhibitory concentration (MIC),[7],n.i.
same,Minimum inhibitory concentration (MIC),Pichia anomala DSM 6766,n.i.
same,Minimum inhibitory concentration (MIC),Bacillus subtilis DSM 10,n.i.
same,Minimum inhibitory concentration (MIC),[1],n.i.
same,Minimum inhibitory concentration (MIC),[8],n.i.
same,Minimum inhibitory concentration (MIC),Mucor hiemalis DSM 2656,n.i.
same,Minimum inhibitory concentration (MIC),Candida albicans DSM1665,n.i.
same,"Antibiofilm activity, C. albicans",[9]; 62.5 µg/mL,49
same,"Antibiofilm activity, C. albicans",[9]; 125 µg/mL,50
same,"Antibiofilm activity, C. albicans",[9]; 250 µg/mL,74
same,"Antifungal activity, inhibition diameter",[10]; [12],n.i.
same,"Antifungal activity, inhibition diameter",[10]; [13],8 mm
same,"Antibiofilm activity, preformed S. aureus",[11]; 7.8 µg/mL,54
same,"Antibiofilm activity, preformed S. aureus",[11]; 15.6 µg/mL,75
same,"Antibiofilm activity, preformed S. aureus",[11]; 62.5 µg/mL,83
same,"Antibiofilm activity, preformed S. aureus",[11]; 125 µg/mL,81
same,"Antibiofilm activity, preformed S. aureus",[11]; 250 µg/mL,49
same,"efficacy of biofilm eradication, preformed biofilms of S. aureus",[11],70–80%
"C[C@@H]1[C@H](O)[C@@H](C)/C=C/C=C/CC/C=C/C=C/C=C/C=C/C(O[C@H]2O[C@H](C)[C@@H](O)[C@H](N)[C@@H]2O)CC2O[C@](O)(CC(O)C(O)CCC(O)CC(O)CC(O)CC(=O)O[C@H]1C)CC(O)C2C(=O)O (stereo partly drawn) [nystatin, reference compound]",Minimum inhibitory concentration (MIC),[3],16.6 ^e µg/mL
same,Minimum inhibitory concentration (MIC),[7],8.3 ^e µg/mL
same,Minimum inhibitory concentration (MIC),Pichia anomala DSM 6766,16.6 ^e µg/mL
same,Minimum inhibitory concentration (MIC),Mucor hiemalis DSM 2656,16.6 ^e µg/mL
same,Minimum inhibitory concentration (MIC),Candida albicans DSM1665,16.6 ^e µg/mL
same,"Antifungal activity, inhibition diameter",[10]; 20 µg/paper disc,21 mm
same,"Antifungal activity, inhibition diameter",[10]; [12],24 mm
"NC[C@H]1O[C@H](O[C@H]2[C@H](O)[C@@H](O[C@H]3O[C@H](CO)[C@@H](O)[C@H](N)[C@H]3O)[C@H](N)C[C@@H]2N)[C@H](O)[C@@H](O)[C@@H]1O [kanamycin, reference compound]",Minimum inhibitory concentration (MIC),[4],1.7 ^d µg/mL
"O=C(O)c1cn(C2CC2)c2cc(N3CCNCC3)c(F)cc2c1=O [ciprofloxacin, reference compound]",MIC,"[6]; DSM30008, n.i.: no inhibition, read-out: Minimum inhibitory concentration (MIC)",0.26 µg/mL
gentamycin [reference compound],Minimum inhibitory concentration (MIC),[2],0.21 ^b µg/mL
same,Minimum inhibitory concentration (MIC),[5],0.21 ^b µg/mL
same,Minimum inhibitory concentration (MIC),[8],0.83 ^b µg/mL
"CCC(C(=O)O)C(=O)OC1C2(C)Oc3ccc(-c4ccc5c(c4O)C(=O)C4=C(O)C6OC6(C)C(OC(=O)C(CC)C(=O)O)C4(C)O5)c(O)c3C(=O)C2=C(O)C2OC21C (stereo not drawn) [Compound 6, Cryptosporioptide C]",Minimum inhibitory concentration (MIC),[2],n.i.
same,Minimum inhibitory concentration (MIC),[3],n.i.
same,Minimum inhibitory concentration (MIC),[4],n.i.
same,Minimum inhibitory concentration (MIC),[5],n.i.
same,Minimum inhibitory concentration (MIC),[6],n.i.
same,Minimum inhibitory concentration (MIC),[7],n.i.
same,Minimum inhibitory concentration (MIC),Pichia anomala DSM 6766,n.i.
same,Minimum inhibitory concentration (MIC),Bacillus subtilis DSM 10,n.i.
same,Minimum inhibitory concentration (MIC),[1],n.i.
same,Minimum inhibitory concentration (MIC),[8],n.i.
same,MIC,"Mucor hiemalis DSM 2656; Mucor hiemalis, DSM2656, read-out: Minimum inhibitory concentration (MIC)",66.6 µg/mL
same,Minimum inhibitory concentration (MIC),Candida albicans DSM1665,n.i.
same,"Antibiofilm activity, C. albicans",[9]; 62.5 µg/mL,40
same,"Antibiofilm activity, C. albicans",[9]; 125 µg/mL,62
same,"Antibiofilm activity, C. albicans",[9]; 250 µg/mL,78
same,"Antifungal activity, inhibition diameter",[10]; [12],n.i.
same,"Antifungal activity, inhibition diameter",[10]; [13],n.i.
same,"Antibiofilm activity, preformed S. aureus",[11]; 2 µg/mL,39
same,"Antibiofilm activity, preformed S. aureus",[11]; 3.9 µg/mL,49
same,"Antibiofilm activity, preformed S. aureus",[11]; 7.8 µg/mL,68
same,"Antibiofilm activity, preformed S. aureus",[11]; 15.6 µg/mL,72
same,"Antibiofilm activity, preformed S. aureus",[11]; 31.3 µg/mL,78
same,"Antibiofilm activity, preformed S. aureus",[11]; 62.5 µg/mL,78
same,"Antibiofilm activity, preformed S. aureus",[11]; 125 µg/mL,77
same,"Antibiofilm activity, preformed S. aureus",[11]; 250 µg/mL,23
same,"efficacy of biofilm eradication, preformed biofilms of S. aureus",[11],70–80%
same,dispersal effects on preformed biofilms of S. aureus,[11]; even up to 2 µg/mL,40%
"CC(C)=CCC/C(C)=C/CC/C(C)=C/CO [Farnesol, farnesol, reference compound]","Antibiofilm activity, C. albicans",[9]; 15.6 µg/mL,55
same,"Antibiofilm activity, C. albicans",[9]; 31.3 µg/mL,66
same,"Antibiofilm activity, C. albicans",[9]; 62.5 µg/mL,71
same,"Antibiofilm activity, C. albicans",[9]; 250 µg/mL,81
